Test results taken from publication PMC12655637, “Design, Synthesis, and Mechanistic Study of Novel Ciprofloxacin/Thiazole Chalcone Hybrids as Potential Anticancer Agents” (Pharmaceuticals, 2025).
Where two headings read alike, the source gives them in different places.

Legend:
MCF7 = test: NCI-60 screening, one-dose (10 µM) and five-dose, SRB; type: cell-based, human; conditions: Homo sapiens, MCF7, 10 μM; MCF7, Breast Cancer; read-out: Growth percentage
DU-145 = test: as above; type: cell-based, human; conditions: Homo sapiens; 10 μM; DU-145, Prostate Cancer; read-out: Growth percentage
CAKI-1 = test: as above; type: cell-based; conditions: Homo sapiens
OVCAR-3 = test: as above; type: cell-based; conditions: Homo sapiens; 10 μM; OVCAR-3, Ovarian Cancer; read-out: Growth percentage
OVCAR-4 = test: as above; type: cell-based, human; conditions: Homo sapiens; 10 μM; OVCAR-4, Ovarian Cancer; read-out: Growth percentage
M14 = test: as above; type: cell-based, human; conditions: Homo sapiens; 10 μM; M14, Melanoma; read-out: Growth percentage
786−0 = test: as above; type: cell-based, human; conditions: Homo sapiens; 10 μM; 786−0, Renal Cancer; read-out: Growth percentage
SK-MEL-2 = test: as above; type: cell-based, human; conditions: Homo sapiens; 10 μM; SK-MEL-2, Melanoma; read-out: Growth percentage
SK-MEL-5 = test: as above; type: cell-based, human; conditions: Homo sapiens; 10 μM; SK-MEL-5, Melanoma; read-out: Growth percentage
NCI-H226 = test: as above; type: cell-based, human; conditions: Homo sapiens; 10 μM; NCI-H226, Non-Small-Cell Lung Cancer; read-out: Growth percentage
[1] = system: 60 human cancer cell lines; test: NCI-60 screening, full panel (mean growth, MID a, ranges over all lines); conditions: Homo sapiens, read-out: Mean growth percentage
Procedure: The screening was performed in accordance with the protocols set forth by the Drug Evaluation Department of the National Cancer Institute (NCI), Bethesda, USA, for in vitro anticancer efficacy at a single concentration of 10 µM against a panel of 60 cancer cell lines derived from nine distinct organs (https://dctd.cancer.gov/data-tools-biospecimens/data (accessed on 15 March 2023 and 6 January 2024)) [37].
The log10 GI50, log10 TGI, and log10 LC50 values were subsequently calculated as the averages of the log10 values of the respective individual GI50, TGI, and LC50 measurements. Negative numbers signified the most sensitive cell lines.
One way to measure a compound’s selectivity is to divide its subpanel MID^b (in μM) by the MID^a (in μM), which is the average sensitivity of all cell lines to the test agent.
At the National Cancer Institute (NCI) in Bethesda, USA, researchers examined the anticancer potential of the target compounds under investigation using nine panels of sixty different cell lines obtained from nine different cancers that were housed in the NCI library. Following the protocols laid out by the National Cancer Institute (https://dctd.cancer.gov/data-tools-biospecimens/data (accessed on 15 March 2023 and 6 January 2024)), the screening procedures were carried out [37]. The anticancer screening was carried out at a single dose of 10^−5 M; the results obtained were expressed as growth inhibition (%).
The anti-cancer potential of the tested compounds was evaluated at the National cancer institute (NCI), Bethesda, USA, against 9 panels of 60 various cell lines derived from nine human tumours available usually at NCI library. The procedures for the screening were described in details in NCI website (dttp://www.dtp.nci.nih.gov.) and were done according to NCI protocols. The anticancer screening was carried out at single dose of 10^-5 M. The results obtained as growth inhibition (%).
Cell lines were grown in Roswell Park Memorial Institute medium (RPMI) with 5% fetal bovine serum and 2% μM L-glutamine. Cancer cells are inoculated into 96 well microtiter plates in 100 μL at plating densities ranging from 5000 to 40,000 cells/well depending on the doubling time of individual cell lines. Then microtiter plates are incubated at 37 °C, 5% CO2, 95% air and 100% relative humidity for 24 h prior to the addition of the tested compounds. After 24 h, two plates of each cell line are fixed in situ with trichloroacetic acid (TCA). The tested compounds were dissolved in dimethyl sulfoxide (DMSO) and stored in the freezer prior to use. An aliquot of frozen drug concentrate is diluted to the desired concentration with complete medium containing 50 μg/mL gentamicin.

OVCAR-8 = test: NCI-60 screening, one-dose (10 µM) and five-dose, SRB; type: cell-based, human; conditions: Homo sapiens; 10 μM; OVCAR-8, Ovarian Cancer; read-out: Growth percentage
SF-268 = test: as above; type: cell-based, human; conditions: Homo sapiens; 10 μM; SF-268, CNS Cancer; read-out: Growth percentage
SK-MEL-28 = test: as above; type: cell-based, human; conditions: Homo sapiens; 10 μM; SK-MEL-28, Melanoma; read-out: Growth percentage
COLO 205 = test: as above; type: cell-based, human; conditions: Homo sapiens; 10 μM; COLO 205, Colon Cancer; read-out: Growth percentage
SNB-19 = test: as above; type: cell-based; conditions: Homo sapiens
SW-620 = test: as above; type: cell-based, human; conditions: Homo sapiens; 10 μM; SW-620, Colon Cancer; read-out: Growth percentage
NCI-H522 = test: as above; type: cell-based, human; conditions: Homo sapiens; 10 μM; NCI-H522, Non-Small-Cell Lung Cancer; read-out: Growth percentage
HOP-62 = test: as above; type: cell-based, human; conditions: Homo sapiens, HOP-62, 10 μM; HOP-62, Non-Small-Cell Lung Cancer; read-out: Growth percentage
UACC-257 = test: as above; type: cell-based, human; conditions: Homo sapiens; 10 μM; UACC-257, Melanoma; read-out: Growth percentage
SN12C = test: as above; type: cell-based, human; conditions: Homo sapiens, 10 μM, Renal Cancer, read-out: Growth percentage
LOX IMVI = test: as above; type: cell-based, human; conditions: Homo sapiens, 10 μM, Melanoma, read-out: Growth percentage
RPMI-8226 = test: as above; type: cell-based, human; conditions: Homo sapiens, RPMI-8226, 10 μM; RPMI-8226, Leukemia; read-out: Growth percentage
UACC-62 = test: as above; type: cell-based; conditions: Homo sapiens
NCI-H460 = test: as above; type: cell-based, human; conditions: Homo sapiens, NCI-H460, 10 μM; NCI-H460, Non-Small-Cell Lung Cancer; read-out: Growth percentage
HL-60(TB) = test: as above; type: cell-based, human; conditions: Homo sapiens, HL-60, 10 μM; HL-60(TB), Leukemia; read-out: Growth percentage
[2] = 10 μM, UACC-62, Melanoma, read-out: Growth percentage
[3] = 10 μM, CAKI-1, Renal Cancer, read-out: Growth percentage
[4] = 10 μM, SNB-19, CNS Cancer, read-out: Growth percentage

SMILES	activity at 10 µM (MCF7) [%]	activity at 10 µM (DU-145) [%]	activity at 10 µM (OVCAR-3) [%]	activity at 10 µM (OVCAR-4) [%]	activity at 10 µM (M14) [%]	activity at 10 µM (786−0) [%]	activity at 10 µM (SK-MEL-2) [%]	activity at 10 µM (SK-MEL-5) [%]	activity at 10 µM (NCI-H226) [%]	activity at 10 µM [1] [%]	activity at 10 µM (OVCAR-8) [%]	activity at 10 µM (SF-268) [%]	activity at 10 µM (SK-MEL-28) [%]	activity at 10 µM (COLO 205) [%]	activity at 10 µM (SW-620) [%]	activity at 10 µM (NCI-H522) [%]	activity at 10 µM (HOP-62) [%]	activity at 10 µM (UACC-257) [%]	activity at 10 µM (SN12C) [%]	activity at 10 µM (LOX IMVI) [%]	further results
Cc1nc(SCC(=O)N2CCN(c3cc4c(cc3F)c(=O)c(C(=O)O)cn4C3CC3)CC2)sc1C(=O)/C=C/c1ccc(Cl)cc1 [Compound 4c, (E)-7-(4-(2-((5-(3-(4-Chlorophenyl)acryloyl)-4-methylthiazol-2-yl)thio)acetyl)piperazin-1-yl)-1-cyclopropyl-6-fluoro-4-oxo-1,4-dihydroquinoline-3-carboxylic Acid]	52.9	178	188	107	98.7	96.2	99.4	100	107	103	76.3	180	100	107	113	95.9	122	117	96.7	80.9	activity at 10 µM (CAKI-1; CAKI-1, read-out: Growth percentage): 100%; activity at 10 µM (SNB-19; SNB-19, read-out: Growth percentage): 100%; activity at 10 µM (RPMI-8226): 7.7%; activity at 10 µM (UACC-62; [2]): 94.9%; activity at 10 µM (NCI-H460): 106%; activity at 10 µM (HL-60(TB)): 92.9%
Cc1nc(SCC(=O)N2CCN(c3cc4c(cc3F)c(=O)c(C(=O)O)cn4C3CC3)CC2)sc1C(=O)/C=C/c1ccc(F)cc1 [Compound 4e, (E)-1-Cyclopropyl-6-fluoro-7-(4-(2-((5-(3-(4-fluorophenyl)acryloyl)-4-methylthiazol-2-yl)thio)acetyl)piperazin-1-yl)-4-oxo-1,4-dihydroquinoline-3-carboxylic Acid]	70.6	105	116	102	97.8	88.3	104	99.9	98.3	100	105	111	116	119	126	98.2	108	106	99.5	91.2	activity at 10 µM (CAKI-1; [3]): 97.4%; activity at 10 µM (SNB-19; [4]): 101%; activity at 10 µM (RPMI-8226): 29.1%; activity at 10 µM (UACC-62; [2]): 99.6%; activity at 10 µM (NCI-H460): 108%; activity at 10 µM (HL-60(TB)): 107%
Cc1nc(SCC(=O)N2CCN(c3cc4c(cc3F)c(=O)c(C(=O)O)cn4C3CC3)CC2)sc1C(=O)/C=C/c1ccc(Br)cc1 [Compound 4f, (E)-7-(4-(2-((5-(3-(4-Bromophenyl)acryloyl)-4-methylthiazol-2-yl)thio)acetyl)piperazin-1-yl)-1-cyclopropyl-6-fluoro-4-oxo-1,4-dihydroquinoline-3-carboxylic Acid]	70.8	113	170	102	108	93.6	105	101	107	102	75	116	114	112	116	105	94.3	118	101	90.5	activity at 10 µM (CAKI-1; [3]): 101%; activity at 10 µM (SNB-19; [4]): 93.8%; activity at 10 µM (RPMI-8226): 31.5%; activity at 10 µM (UACC-62; [2]): 105%; activity at 10 µM (NCI-H460): 107%; activity at 10 µM (HL-60(TB)): 83.3%
Cc1nc(SCC(=O)N2CCN(c3cc4c(cc3F)c(=O)c(C(=O)O)cn4C3CC3)CC2)sc1C(=O)/C=C/c1cccc([N+](=O)[O-])c1 [Compound 4g, (E)-1-Cyclopropyl-6-fluoro-7-(4-(2-((4-methyl-5-(3-(3-nitrophenyl)acryloyl)thiazol-2-yl)thio)acetyl)piperazin-1-yl)-4-oxo-1,4-dihydroquinoline-3-carboxylic Acid]	11.6	108	163	103	83.3	71.2	68.9	81.7	102	80	69.2	172	80.8	90.5	69.8	72.3	94.5	99.8	65.4	34.2	activity at 10 µM (CAKI-1; [3]): 92.6%; activity at 10 µM (SNB-19; [4]): 87.7%; activity at 10 µM (RPMI-8226): 9.9%; activity at 10 µM (UACC-62; UACC-62, read-out: Growth percentage): 71.9%; activity at 10 µM (NCI-H460): 106%; activity at 10 µM (HL-60(TB)): 80.5%
Cc1nc(SCC(=O)N2CCN(c3cc4c(cc3F)c(=O)c(C(=O)O)cn4C3CC3)CC2)sc1C(=O)/C=C/c1ccc([N+](=O)[O-])cc1 [Compound 4h, (E)-1-Cyclopropyl-6-fluoro-7-(4-(2-((4-methyl-5-(3-(4-nitrophenyl)acryloyl)thiazol-2-yl)thio)acetyl)piperazin-1-yl)-4-oxo-1,4-dihydroquinoline-3-carboxylic Acid]	7.2	85.3	49.4	89.2	70.5	87.6	87.7	83.5	87.9	77.6	68.9	81.1	60	95.9	78.2	27.9	88.3	82.6	78.3	28.3	activity at 10 µM (CAKI-1; [3]): 116%; activity at 10 µM (SNB-19; [4]): 72.2%; activity at 10 µM (RPMI-8226): 16.3%; activity at 10 µM (UACC-62; [2]): 59%; activity at 10 µM (NCI-H460): 99.4%; activity at 10 µM (HL-60(TB)): 80.9%
Cc1nc(SCC(=O)N2CCN(c3cc4c(cc3F)c(=O)c(C(=O)O)cn4C3CC3)CC2)sc1C(=O)/C=C/c1ccc(N(C)C)cc1 [Compound 4i, (E)-1-Cyclopropyl-7-(4-(2-((5-(3-(4-(dimethylamino)phenyl)acryloyl)-4-methylthiazol-2-yl)thio)acetyl)piperazin-1-yl)-6-fluoro-4-oxo-1,4-dihydroquinoline-3-carboxylic Acid]	17.3	147	172	102	75.9	59.2	85.5	89.8	100	83.9	76.5	140	95.9	117	117	78.5	105	108	81.1	24.6	activity at 10 µM (CAKI-1; [3]): 81.7%; activity at 10 µM (SNB-19; [4]): 88.6%; activity at 10 µM (RPMI-8226): 4.7%; activity at 10 µM (UACC-62; [2]): 79.9%; activity at 10 µM (NCI-H460): 108%; activity at 10 µM (HL-60(TB)): 89.5%
